Results as given in US5326869A (priority 1991, dated 1994).

Molecular target: A2 Adenosine receptor (Rattus norvegicus, UniProt P30543)
Assay: biochemical
Experimental: The membrane preparation is obtained as follows: Frozen pellets of PC12 cells are washed twice with ice cold, buffered, physiological saline and the cells recovered by centrifugation (1500 G) at 3° C. The separated cells are then suspended in hypotonic solution (distilled water), allowed to stand on ice for 30 minutes and are then carefully homogenized using a standard high-speed homogeniser with periodic ice-cooling to obtain a fine suspension. […] The mixture is then incubated at 37° C. After 20 minutes, the reaction is terminated by dilution with ice-cold buffer and transfer onto ice. The material obtained containing the cell membranes is recovered by centrifugation and washed by resuspension in buffer and recentrifugation. The pellet produced is then resuspended in ice-cold buffer using a hand-driven homogenizer. The resultant membrane suspension is frozen and stored under liquid nitrogen until required.
After incubation, the samples are rapidly filtered over glass-fibre mats and the filter mats are washed to remove non-receptor-bound radioligand. Receptor-bound radioligand entrapped on the filter mats is then determined by liquid scintillation counting. […] The specific binding (defined as the difference between the total binding and the non-specific binding) in the presence of the particular test compound is determined and compared with the control value.

A2 Adenosine receptor, sequence (P30543 whole entry): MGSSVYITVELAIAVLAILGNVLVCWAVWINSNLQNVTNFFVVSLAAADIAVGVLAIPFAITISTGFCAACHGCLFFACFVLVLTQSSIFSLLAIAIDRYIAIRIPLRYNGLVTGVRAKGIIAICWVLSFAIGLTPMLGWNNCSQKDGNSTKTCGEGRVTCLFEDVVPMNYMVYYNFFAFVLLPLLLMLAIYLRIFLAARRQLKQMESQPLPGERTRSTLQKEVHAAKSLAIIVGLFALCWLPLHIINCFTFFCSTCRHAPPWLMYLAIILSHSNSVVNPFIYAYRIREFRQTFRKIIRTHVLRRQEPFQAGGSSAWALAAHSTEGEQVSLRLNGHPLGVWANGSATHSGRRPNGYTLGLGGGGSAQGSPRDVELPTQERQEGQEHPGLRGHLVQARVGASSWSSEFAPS

IC50: ~10 nM
Structure (SMILES): Nc1nc(Oc2ccccc2)nc2nc(-c3ccco3)nn12 [Example 2, 7-amino-2-(2-furyl)-5-phenoxy[1,2,4]triazolo[1,5-a][1,3,5]triazine]
